From patent publication US10233191B2, “Fused piperidine amides as modulators of ion channels” (Vertex Pharmaceuticals Incorporated, priority 2013, dated 2019)

Each compound was assayed against T1, NaV 1.7 (Homo sapiens, UniProt Q15858) (assay: E-VIPR optical membrane potential assay with electrical stimulation). Details: active against one or more sodium channels; assay/subtype not specified in Table 4; read-out: IC50 Binned Activity Data.
T1 construct: expressed in transfected cells; host or cells: HEK cells
T1 sequence (Q15858 whole entry): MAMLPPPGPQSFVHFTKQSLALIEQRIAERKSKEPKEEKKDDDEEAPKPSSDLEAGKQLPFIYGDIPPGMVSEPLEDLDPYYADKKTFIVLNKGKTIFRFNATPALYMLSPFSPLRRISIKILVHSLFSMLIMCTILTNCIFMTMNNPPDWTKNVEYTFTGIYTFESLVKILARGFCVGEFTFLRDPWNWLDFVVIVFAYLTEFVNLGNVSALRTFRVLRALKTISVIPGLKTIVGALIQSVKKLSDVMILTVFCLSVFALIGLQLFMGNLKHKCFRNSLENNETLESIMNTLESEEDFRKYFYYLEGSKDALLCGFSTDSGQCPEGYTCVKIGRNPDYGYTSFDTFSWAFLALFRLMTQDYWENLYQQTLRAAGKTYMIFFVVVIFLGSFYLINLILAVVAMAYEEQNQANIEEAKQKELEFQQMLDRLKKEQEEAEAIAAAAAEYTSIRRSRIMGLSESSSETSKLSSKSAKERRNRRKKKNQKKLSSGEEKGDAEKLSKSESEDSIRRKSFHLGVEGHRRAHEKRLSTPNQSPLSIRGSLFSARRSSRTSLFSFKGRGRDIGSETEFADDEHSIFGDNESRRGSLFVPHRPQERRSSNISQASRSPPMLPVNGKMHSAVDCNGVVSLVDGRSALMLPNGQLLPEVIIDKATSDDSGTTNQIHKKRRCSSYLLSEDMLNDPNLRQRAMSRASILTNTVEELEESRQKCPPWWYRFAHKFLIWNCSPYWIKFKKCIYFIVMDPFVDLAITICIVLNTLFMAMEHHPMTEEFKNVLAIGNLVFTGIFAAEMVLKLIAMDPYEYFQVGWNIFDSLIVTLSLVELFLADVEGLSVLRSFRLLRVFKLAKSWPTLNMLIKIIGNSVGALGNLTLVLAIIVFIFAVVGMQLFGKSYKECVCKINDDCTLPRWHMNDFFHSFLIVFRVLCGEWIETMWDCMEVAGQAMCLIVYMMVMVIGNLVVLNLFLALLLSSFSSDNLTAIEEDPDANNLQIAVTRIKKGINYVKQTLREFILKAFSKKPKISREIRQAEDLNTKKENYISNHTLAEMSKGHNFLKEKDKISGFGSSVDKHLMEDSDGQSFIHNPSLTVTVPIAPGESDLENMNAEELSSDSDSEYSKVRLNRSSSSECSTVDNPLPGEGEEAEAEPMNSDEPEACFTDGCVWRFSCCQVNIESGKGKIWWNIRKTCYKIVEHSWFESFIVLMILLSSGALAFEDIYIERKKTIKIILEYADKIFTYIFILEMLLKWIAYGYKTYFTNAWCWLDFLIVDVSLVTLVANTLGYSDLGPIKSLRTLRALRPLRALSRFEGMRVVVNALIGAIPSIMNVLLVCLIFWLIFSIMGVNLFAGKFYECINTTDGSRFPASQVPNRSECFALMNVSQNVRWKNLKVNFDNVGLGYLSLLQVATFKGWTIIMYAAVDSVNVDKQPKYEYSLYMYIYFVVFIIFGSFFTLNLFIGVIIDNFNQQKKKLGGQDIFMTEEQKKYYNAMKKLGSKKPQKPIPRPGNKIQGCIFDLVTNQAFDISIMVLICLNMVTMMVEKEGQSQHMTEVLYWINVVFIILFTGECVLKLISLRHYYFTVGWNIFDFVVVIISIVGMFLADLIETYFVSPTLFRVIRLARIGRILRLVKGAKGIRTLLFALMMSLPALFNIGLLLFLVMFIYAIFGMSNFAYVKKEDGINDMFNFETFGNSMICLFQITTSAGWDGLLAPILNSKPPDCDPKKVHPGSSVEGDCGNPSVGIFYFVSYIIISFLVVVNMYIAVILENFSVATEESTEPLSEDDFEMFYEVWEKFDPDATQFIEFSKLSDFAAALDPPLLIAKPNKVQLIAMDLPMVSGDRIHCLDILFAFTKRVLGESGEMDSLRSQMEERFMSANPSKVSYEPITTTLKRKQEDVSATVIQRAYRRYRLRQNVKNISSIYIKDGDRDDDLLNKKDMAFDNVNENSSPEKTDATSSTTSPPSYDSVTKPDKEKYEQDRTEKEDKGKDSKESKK
Type: cell-based
Source text: E-VIPR Optical Membrane Potential Assay Method with Electrical Stimulation
Sodium channels are voltage-dependent proteins that can be activated by inducing membrane voltage changes by applying electric fields. The electrical stimulation instrument and methods of use are described in Ion Channel Assay Methods PCT/US01/21652, herein incorporated by reference and are referred to as E-VIPR. The instrument comprises a microtiter plate handler, an optical system for exciting the coumarin dye while simultaneously recording the coumarin and oxonol emissions, a waveform generator, a current- or voltage-controlled amplifier, and a device for inserting electrodes in well. Under integrated computer control, this instrument passes user-programmed electrical stimulus protocols to cells within the wells of the microtiter plate.
24 hours before the assay on E-VIPR, HEK cells expressing human NaV subtype, like NaV 1.7, are seeded in 384-well poly-lysine coated plates at 15,000-20,000 cells per well. Other subtypes are performed in an analogous mode in a cell line expressing the NaV of interest. HEK cells are grown in media (exact composition is specific to each cell type and NaV subtype) supplemented with 10% FBS (Fetal Bovine Serum, qualified; GibcoBRL #16140-071) and 1% Pen-Strep (Penicillin-Streptomycin; GibcoBRL #15140-122). Cells are grown in vented cap flasks, in 90% humidity and 10% CO2, to 100% confluence. They are usually split by trypsinization 1:10 or 1:20, depending on scheduling needs, and grown for 2-3 days before the next split.
• 100 mg/mL Pluronic F-127 (Sigma #P2443), in dry DMSO • Compound Plates: 384-well round bottom plate, e.g. Corning 384-well Polypropylene Round Bottom #3656 • Cell Plates: 384-well tissue culture treated plate, e.g. Greiner #781091-1B • 10 mM DiSBAC6(3) (Aurora #00-100-010) in dry DMSO • 10 mM CC2-DMPE (Aurora #00-100-008) in dry DMSO • 200 mM ABSC1 in H2O
Bath1 buffer. Glucose 10 mM (1.8 g/L), Magnesium Chloride (Anhydrous), 1 mM (0.095 g/L), Calcium Chloride, 2 mM (0.222 g/L), HEPES 10 mM (2.38 g/L), Potassium Chloride, 4.5 mM (0.335 g/L), Sodium Chloride 160 mM (9.35 g/L).
Hexyl Dye Solution: Bath1 Buffer+0.5% β-cyclodextrin (make this prior to use, Sigma #C4767), 8 μM CC2-DMPE+2.5 μM DiSBAC6(3). To make the solution Add volume of 10% Pluronic F127 stock equal to volumes of CC2-DMPE+DiSBAC6(3). The order of preparation is first mix Pluronic and CC2-DMPE, then add DiSBAC6(3) while vortexing, then add Bath1+β-Cyclodextrin.
1) Pre-spot compounds (in neat DMSO) into compound plates. Vehicle control (neat DMSO), the positive control (20 mM DMSO stock tetracaine, 125 μM final in assay) and test compounds are added to each well at 160× desired final concentration in neat DMSO. Final compound plate volume will be 80 μL (80-fold intermediate dilution from 1 μL DMSO spot; 160-fold final dilution after transfer to cell plate). Final DMSO concentration for all wells in assay is 0.625%.
2) Prepare Hexyl Dye Solution.
3) Prepare cell plates. On the day of the assay, medium is aspirated and cells are washed three times with 100 μL of Bath1 Solution, maintaining 25 μL residual volume in each well.
4) Dispense 25 μL per well of Hexyl Dye Solution into cell plates. Incubate for 20-35 minutes at room temp or ambient conditions.
5) Dispense 80 μL per well of Bath1 into compound plates. Acid Yellow-17 (1 mM) is added and Potassium Chloride can be altered from 4.5 to 20 mM depending on the NaV subtype and assay sensitivity.
6) Wash cell plates three times with 100 μL per well of Bath1, leaving 25 μL of residual volume. Then transfer 25 uL per well from Compound Plates to Cell Plates. Incubate for 20-35 minutes at room temp/ambient condition
7) Read Plate on E-VIPR. Use the current-controlled amplifier to deliver stimulation wave pulses for typically 9 seconds and a scan rate of 400 Hz. A pre-stimulus recording is performed for 0.5 seconds to obtain the un-stimulated intensities baseline. […]

Compound	IC50
COc1cc(C(=O)N2CC[C@]3(c4ncccc4F)OCOC3C2)ccc1OCC1CC(F)(F)C1 (stereo partly drawn) [Compound 1]	≤ 2000 nM
Cc1cc(C(=O)N2CC[C@]3(c4cc(C(F)(F)F)ccn4)OCOC3C2)ccc1OCC(C)(C)F (stereo partly drawn) [Compound 2]	≤ 2000 nM
COc1ccnc([C@]23CCN(C(=O)c4ccc(OCC(F)(F)C(F)F)c(OC)c4)CC2OCO3)c1 (stereo partly drawn) [Compound 3]	≤ 2000 nM
COc1cc(C(=O)N2CC[C@]3(c4cc(F)cc(F)c4)OCOC3C2)ccc1OCCOC(F)(F)F (stereo partly drawn) [Compound 4]	≤ 2000 nM
Cc1cc(C(=O)N2CC[C@]3(c4ncccn4)OCOC3C2)ccc1OC(C)C (stereo partly drawn) [Compound 5]	> 5000 nM
COc1cc(C(=O)N2CC[C@@]3(c4nccs4)OCOC3C2)ccc1OCC(C)(C)F (stereo partly drawn) [Compound 6]	> 5000 nM
COc1cc(C(=O)N2CC[C@]3(c4ncccn4)OCOC3C2)ccc1OCC(C)(C)F (stereo partly drawn) [Compound 7]	> 5000 nM
COc1cc(C(=O)N2CC[C@@]3(c4ccccc4)OCOC3C2)ccc1OCC(C)(C)O (stereo partly drawn) [Compound 8]	> 5000 nM
O=C(c1ccc(O)c(Cl)c1)N1CC[C@]2(c3ccccn3)OCOC2C1 (stereo partly drawn) [Compound 9]	> 5000 nM
CC(C)Oc1ccc(C(=O)N2CCC3(c4ccccc4)CC3C2)cn1 (stereo not drawn) [Compound 10]	> 5000 nM
COc1c(F)cccc1C(=O)N1CCC2(c3ccccc3)CC2C1 (stereo not drawn) [Compound 11]	> 5000 nM
COc1cc(C(=O)N2CC[C@]3(c4ncccn4)OCOC3C2)ccc1OCCOC(F)(F)F (stereo partly drawn) [Compound 12]	> 5000 nM
Cc1cc(C(=O)N2CCC3(c4ccccc4)OCC3C2)ccc1OC(C)C (stereo not drawn) [Compound 13]	> 5000 nM
COc1ccc(C(=O)N2CCC3(c4ccccc4)CC3C2)nc1C (stereo not drawn) [Compound 14]	2000 to 5000 nM
CCS(=O)(=O)c1ccc(C(=O)N2CCC3(c4ccccc4)CC3C2)cc1C (stereo not drawn) [Compound 15]	2000 to 5000 nM
CC(C)Oc1ccc(C(=O)N2CCC3(c4ccccc4)CC3C2)cc1F (stereo not drawn) [Compound 16]	2000 to 5000 nM
CC(C)(O)COc1ccc(C(=O)N2CC[C@@]3(c4nccs4)OCOC3C2)cc1Cl (stereo partly drawn) [Compound 17]	2000 to 5000 nM
Cc1cc(C(=O)N2CCC3(c4ccccc4)CC3C2)cnc1OC(C)C (stereo not drawn) [Compound 18]	2000 to 5000 nM
CC(C)Oc1ccc(C(=O)N2CCC3(c4ccccc4)CC3C2)c(F)c1 (stereo not drawn) [Compound 19]	2000 to 5000 nM

Compound	IC50
O=C(c1cccc2c1OCC2)N1CCC2(c3ccccc3)CC2C1 (stereo not drawn) [Compound 20]	2000 to 5000 nM
CC(C)COc1ccc(C(=O)N2CCC3(c4ccccc4)CC3C2)nc1 (stereo not drawn) [Compound 21]	2000 to 5000 nM
CC(C)(O)COc1ccc(C(=O)N2CC[C@]3(c4nccs4)OCOC3C2)cc1Cl (stereo partly drawn) [Compound 22]	2000 to 5000 nM
COc1cc(C(=O)N2CC[C@]3(c4ccccn4)OCOC3C2)ccc1OCC(C)(C)F (stereo partly drawn) [Compound 23]	2000 to 5000 nM
COc1cc(C(=O)N2CC[C@]3(c4nccs4)OCOC3C2)ccc1OCC(C)(C)F (stereo partly drawn) [Compound 24]	2000 to 5000 nM
Cc1cc(C(=O)N2CC[C@]3(c4ccccn4)OCOC3C2)ccc1OCC(C)(C)O (stereo partly drawn) [Compound 25]	2000 to 5000 nM
O=C(c1ccc(S(=O)(=O)NC2CC2)cc1)N1CCC2(c3ccccc3)CC2C1 (stereo not drawn) [Compound 26]	2000 to 5000 nM
Cc1cc(C(=O)N2CC[C@]3(c4ncccn4)OCOC3C2)ccc1OCC(C)(C)F (stereo partly drawn) [Compound 27]	≤ 2000 nM
O=C(c1ccc(C2(O)CCC2)cc1)N1CCC2(c3ccccc3)CC2C1 (stereo not drawn) [Compound 28]	≤ 2000 nM
CC(C)(O)c1ccc(C(=O)N2CCC3(c4ccccc4)CC3C2)cc1 (stereo not drawn) [Compound 29]	≤ 2000 nM
Cc1cc(C(=O)N2CC[C@@]3(c4nccs4)OCOC3C2)ccc1OCC(C)(C)O (stereo partly drawn) [Compound 30]	≤ 2000 nM
Cc1cc(C(=O)N2CC[C@]3(c4nccs4)OCOC3C2)ccc1OCC(C)(C)O (stereo partly drawn) [Compound 31]	≤ 2000 nM
COc1cc(C(=O)N2CC[C@]3(c4ccc(F)cc4)OCOC3C2)ccc1COCCC(F)(F)F (stereo partly drawn) [Compound 32]	≤ 2000 nM
O=C(c1cccc2cccnc12)N1CCC2(c3ccccc3)OCC2C1 (stereo not drawn) [Compound 33]	≤ 2000 nM
COc1cccnc1[C@]12CCN(C(=O)c3ccc(OCC(C)(C)F)c(C)c3)CC1OCO2 (stereo partly drawn) [Compound 34]	≤ 2000 nM
CC(C)Oc1ccc(C(=O)N2CCC3(c4ccccc4)CC3C2)cc1C#N (stereo not drawn) [Compound 35]	≤ 2000 nM
COc1cc(C(=O)N2CC[C@@]3(c4ccccc4)OCOC3C2)ccc1OCC(C)(C)F (stereo partly drawn) [Compound 36]	≤ 2000 nM
CC(C)(O)Cc1ccc(C(=O)N2CCC3(c4ccccc4)CC3C2)cc1F (stereo not drawn) [Compound 37]	≤ 2000 nM
COc1cc(C(=O)N2CC[C@]3(c4ccc(F)cc4)OCOC3C2)ccc1OCC(C)(C)F (stereo partly drawn) [Compound 38]	≤ 2000 nM

Compound	IC50
COc1cc(C(=O)N2CC[C@]3(c4cscn4)OCOC3C2)ccc1OCCOC(F)(F)F (stereo partly drawn) [Compound 39]	> 5000 nM
COc1cc(C(=O)N2CC[C@]3(c4ccccn4)OCOC3C2)cc(F)c1OCCC(F)(F)F (stereo partly drawn) [Compound 40]	≤ 2000 nM
COc1cc(C(=O)N2CC[C@]3(c4ncccc4OC)OCOC3C2)ccc1OCCOC(F)(F)F (stereo partly drawn) [Compound 41]	≤ 2000 nM
COc1cc(C(=O)N2CC[C@]3(c4ccccc4)OCOC3C2)ccc1OCC(C)(C)O (stereo partly drawn) [Compound 42]	≤ 2000 nM
O=C(c1cccc2cccnc12)N1CC[C@@]2(c3ccccc3)OCOC2C1 (stereo partly drawn) [Compound 43]	2000 to 5000 nM
Cc1cc(C(=O)N2CCC3(c4ccc(F)cc4)CC3C2)ccc1OCC(C)(C)O (stereo not drawn) [Compound 44]	≤ 2000 nM
Cc1cc(C(=O)N2CC[C@]3(c4ccccc4)OCOC3C2)ccc1C(C)(C)O (stereo partly drawn) [Compound 45]	≤ 2000 nM
COc1cc(C(=O)N2CC[C@@]3(c4ccn(C)n4)OCOC3C2)ccc1OCCOC(F)(F)F (stereo partly drawn) [Compound 46]	≤ 2000 nM
COc1cc(C(=O)N2CC[C@@]3(c4ccc(F)cc4)OCOC3C2)ccc1OCC(C)(C)F (stereo partly drawn) [Compound 47]	≤ 2000 nM
COc1cc(C(=O)N2CC[C@@]3(c4ccc(F)cc4)OCOC3C2)ccc1COCCC(F)(F)F (stereo partly drawn) [Compound 48]	≤ 2000 nM
Cc1cc(C(=O)N2CC[C@@]3(c4ccccc4)OCOC3C2)ccc1C(C)(C)O (stereo partly drawn) [Compound 49]	> 5000 nM
COc1cc(C(=O)N2CC[C@]3(c4ccccn4)OCOC3C2)ccc1COCC(F)(F)F (stereo partly drawn) [Compound 50]	≤ 2000 nM
O=C(c1ccc2c(c1)OCC(COC(F)(F)F)O2)N1CC[C@]2(c3ccccc3)OCOC2C1 (stereo partly drawn) [Compound 51]	2000 to 5000 nM
Cc1cc(C(=O)N2CC[C@]3(c4cscn4)OCOC3C2)ccc1OCC(C)(C)F (stereo partly drawn) [Compound 52]	2000 to 5000 nM
Cc1cc(C(=O)N2CC[C@]3(c4ccc(F)cc4)OCOC3C2)ccc1OCC(C)(C)O (stereo partly drawn) [Compound 53]	≤ 2000 nM
O=C(c1ccc2c(c1)OCC(COC(F)(F)F)O2)N1CC[C@@]2(c3ccccc3)OCOC2C1 (stereo partly drawn) [Compound 54]	≤ 2000 nM
COc1cc(C(=O)N2CCC3(c4ccccc4)OCC3C2)ccc1OCCOC(F)(F)F (stereo not drawn) [Compound 55]	≤ 2000 nM
Cc1nc(C(=O)N2CCC3(c4ccccc4)OCC3C2)ccc1OC(C)C (stereo not drawn) [Compound 56]	≤ 2000 nM
CC(C)(O)c1ccc(C(=O)N2CCC3(c4ccccc4)CC3C2)cc1F (stereo not drawn) [Compound 57]	> 5000 nM
